According to the NIST ThermoML archive (doi:10.1021/je3007666):
± gives the expanded uncertainty stated by the source.

Test: relative permittivity at zero frequency (dimensionless); xn = mol fraction of the nth substance listed
Details: 100 kPa, Liquid, Dielectrometer

CC(C)(C)O [2-methylpropan-2-ol] + CCCCO
relative permittivity at zero frequency
Details | 288.15 K | 293.15 K | 298.15 K | 303.15 K | 308.15 K
x1 = 0.0501 | 18.96 ± 0.06 | 18.21 ± 0.06 | 17.49 ± 0.06 | 16.81 ± 0.06 | 16.12 ± 0.06
x1 = 0.1012 | 18.93 ± 0.06 | 18.16 ± 0.06 | 17.42 ± 0.06 | 16.68 ± 0.06 | 15.97 ± 0.06
x1 = 0.1503 | 18.85 ± 0.06 | 18.04 ± 0.06 | 17.29 ± 0.06 | 16.53 ± 0.06 | 15.81 ± 0.06
x1 = 0.2003 | 18.75 ± 0.06 | 17.92 ± 0.06 | 17.15 ± 0.06 | 16.37 ± 0.06 | 15.62 ± 0.06
x1 = 0.2497 | 18.61 ± 0.06 | 17.79 ± 0.06 | 16.99 ± 0.06 | 16.19 ± 0.06 | 15.44 ± 0.06
x1 = 0.299 | 18.48 ± 0.06 | 17.63 ± 0.06 | 16.85 ± 0.06 | 16.01 ± 0.06 | 15.25 ± 0.06
x1 = 0.349 | 18.36 ± 0.06 | 17.5 ± 0.06 | 16.69 ± 0.06 | 15.83 ± 0.06 | 15.07 ± 0.06
x1 = 0.3993 | 18.25 ± 0.06 | 17.35 ± 0.06 | 16.53 ± 0.06 | 15.65 ± 0.06 | 14.87 ± 0.06
x1 = 0.4505 | 18.13 ± 0.06 | 17.22 ± 0.06 | 16.38 ± 0.06 | 15.45 ± 0.06 | 14.63 ± 0.06
x1 = 0.5001 | 18.01 ± 0.06 | 17.06 ± 0.06 | 16.19 ± 0.06 | 15.25 ± 0.06 | 14.42 ± 0.06
x1 = 0.5511 | 17.89 ± 0.06 | 16.91 ± 0.06 | 16.01 ± 0.06 | 15.02 ± 0.06 | 14.15 ± 0.06
x1 = 0.5998 | 17.74 ± 0.06 | 16.73 ± 0.06 | 15.82 ± 0.06 | 14.79 ± 0.06 | 13.89 ± 0.06
x1 = 0.649 | 17.6 ± 0.06 | 16.54 ± 0.06 | 15.58 ± 0.06 | 14.51 ± 0.06 | 13.59 ± 0.06
x1 = 0.7001 | 17.39 ± 0.06 | 16.31 ± 0.06 | 15.32 ± 0.06 | 14.21 ± 0.06 | 13.25 ± 0.06
x1 = 0.7503 | 17.15 ± 0.06 | 16.03 ± 0.06 | 15 ± 0.06 | 13.88 ± 0.06 | 12.89 ± 0.06
x1 = 0.8003 | 16.84 ± 0.06 | 15.7 ± 0.06 | 14.63 ± 0.06 | 13.48 ± 0.06 | 12.49 ± 0.06
x1 = 0.8497 | 16.45 ± 0.06 | 15.26 ± 0.06 | 14.21 ± 0.06 | 13.03 ± 0.06 | 12.04 ± 0.06
x1 = 0.899 | 15.96 ± 0.06 | 14.77 ± 0.06 | 13.71 ± 0.06 | 12.53 ± 0.06 | 11.55 ± 0.06
x1 = 0.95 | 15.29 ± 0.06 | 14.15 ± 0.06 | 13.15 ± 0.06 | 11.97 ± 0.06 | 11 ± 0.06
x1 = 1 | 14.49 ± 0.06 | 13.38 ± 0.06 | 12.49 ± 0.06 | 11.34 ± 0.06 | 10.4 ± 0.06

CCC(C)O (stereo not given) [butan-2-ol] + CCCCO
relative permittivity at zero frequency
Details | 288.15 K | 293.15 K | 298.15 K | 303.15 K | 308.15 K
x1 = 0.0501 | 18.97 ± 0.06 | 18.24 ± 0.06 | 17.54 ± 0.06 | 16.86 ± 0.06 | 16.21 ± 0.06
x1 = 0.0987 | 18.93 ± 0.06 | 18.2 ± 0.06 | 17.49 ± 0.06 | 16.81 ± 0.06 | 16.16 ± 0.06
x1 = 0.1506 | 18.89 ± 0.06 | 18.15 ± 0.06 | 17.44 ± 0.06 | 16.76 ± 0.06 | 16.1 ± 0.06
x1 = 0.1998 | 18.86 ± 0.06 | 18.11 ± 0.06 | 17.4 ± 0.06 | 16.71 ± 0.06 | 16.05 ± 0.06
x1 = 0.2503 | 18.82 ± 0.06 | 18.07 ± 0.06 | 17.35 ± 0.06 | 16.65 ± 0.06 | 15.99 ± 0.06
x1 = 0.2986 | 18.79 ± 0.06 | 18.03 ± 0.06 | 17.3 ± 0.06 | 16.6 ± 0.06 | 15.93 ± 0.06
x1 = 0.3512 | 18.75 ± 0.06 | 17.99 ± 0.06 | 17.25 ± 0.06 | 16.54 ± 0.06 | 15.87 ± 0.06
x1 = 0.3977 | 18.72 ± 0.06 | 17.95 ± 0.06 | 17.2 ± 0.06 | 16.49 ± 0.06 | 15.81 ± 0.06
x1 = 0.4497 | 18.69 ± 0.06 | 17.91 ± 0.06 | 17.16 ± 0.06 | 16.43 ± 0.06 | 15.74 ± 0.06
x1 = 0.4998 | 18.67 ± 0.06 | 17.87 ± 0.06 | 17.11 ± 0.06 | 16.37 ± 0.06 | 15.68 ± 0.06
x1 = 0.5501 | 18.64 ± 0.06 | 17.83 ± 0.06 | 17.06 ± 0.06 | 16.32 ± 0.06 | 15.61 ± 0.06
x1 = 0.6011 | 18.61 ± 0.06 | 17.79 ± 0.06 | 17.01 ± 0.06 | 16.26 ± 0.06 | 15.54 ± 0.06
x1 = 0.649 | 18.59 ± 0.06 | 17.76 ± 0.06 | 16.96 ± 0.06 | 16.2 ± 0.06 | 15.47 ± 0.06
x1 = 0.7005 | 18.57 ± 0.06 | 17.72 ± 0.06 | 16.91 ± 0.06 | 16.14 ± 0.06 | 15.4 ± 0.06
x1 = 0.7511 | 18.55 ± 0.06 | 17.68 ± 0.06 | 16.86 ± 0.06 | 16.07 ± 0.06 | 15.32 ± 0.06
x1 = 0.7986 | 18.53 ± 0.06 | 17.65 ± 0.06 | 16.81 ± 0.06 | 16.01 ± 0.06 | 15.25 ± 0.06
x1 = 0.8498 | 18.51 ± 0.06 | 17.62 ± 0.06 | 16.76 ± 0.06 | 15.95 ± 0.06 | 15.17 ± 0.06
x1 = 0.9006 | 18.5 ± 0.06 | 17.58 ± 0.06 | 16.71 ± 0.06 | 15.88 ± 0.06 | 15.09 ± 0.06
x1 = 0.9487 | 18.48 ± 0.06 | 17.55 ± 0.06 | 16.66 ± 0.06 | 15.82 ± 0.06 | 15.01 ± 0.06
x1 = 1 | 18.47 ± 0.06 | 17.51 ± 0.06 | 16.6 ± 0.06 | 15.75 ± 0.06 | 14.94 ± 0.06
